The values below come from patent US5847125A, “Amino acid derivatives with anticholecystokinin activity” (James Black Foundation Limited, priority 1992, dated 1998).

Assay [1] has as its target T1, CCKA (Cavia porcellus, UniProt Q63931).
T1 construct: The pancreatata were removed from male guinea-pigs (200-300 g; Dunkin Hartley); from tissue; host or cells: guinea-pig pancreas membranes
T1 sequence (Q63931 1-430): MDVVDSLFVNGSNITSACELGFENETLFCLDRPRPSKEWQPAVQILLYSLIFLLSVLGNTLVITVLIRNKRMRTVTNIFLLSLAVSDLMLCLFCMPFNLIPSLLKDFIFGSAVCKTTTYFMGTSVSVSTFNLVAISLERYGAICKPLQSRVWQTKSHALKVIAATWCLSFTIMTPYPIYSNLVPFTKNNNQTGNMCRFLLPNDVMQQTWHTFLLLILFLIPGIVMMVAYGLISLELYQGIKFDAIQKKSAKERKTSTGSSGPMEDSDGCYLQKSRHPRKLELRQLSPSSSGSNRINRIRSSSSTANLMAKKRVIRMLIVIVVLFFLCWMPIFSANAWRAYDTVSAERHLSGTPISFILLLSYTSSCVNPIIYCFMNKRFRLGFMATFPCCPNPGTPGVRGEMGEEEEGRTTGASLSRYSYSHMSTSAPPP
As to the kind of experiment: CCKA binding assay, pancreas membranes, [125I]-CCK8(S). To be noted: guinea-pig pancreas membranes; [125I]-CCK8(S) 200 pM; 0.375 μM PD134,308; 150 minutes at 21°; non-specific binding 100 nM L-364,718; read-out: pKi CCKλ (converted). Details: species or system male guinea-pigs (Dunkin Hartley). On the procedure:
The compounds of the examples were also tested in a CCKA binding assay as follows:
The pancreatata were removed from male guinea-pigs (200-300 g; Dunkin Hartley) and placed in ice-cold HEPES buffer (pH 7.2@21°±3°). The pancreatata were homogenised in 40 ml ice-cold HEPES buffer using a polytron (Brinkmann, PT10, setting 10) 4×1 second. The homogenate was centrifuged at 39,800 g for 15 min at 4°. The supernatant was discarded and the pellet re-suspended using a Teflon-in-glass homogeniser in 20 volumes of fresh buffer and re-centrifuged as above. The final pellet was re-suspended using a Teflon-in-glass homogeniser to a tissue concentration of 1 mg ml^31 1 (original wet weight), and filtered through 500 μm pore-size Nytex mesh.
The membranes (400 μl; containing 0.375 μM PD134,308) are incubated for 150 minutes at 21°±3° in a final volume of 0.5 ml with HEPES buffer containing [^125 I]--CCK8 (S) (50 μl; 200 pM) and competing compound. Total and non-specific binding of [^125 I]--CCK8 (S) are defined using 50 μl of buffer and 50 μl of 100 nM L-364,718 respectively. The assay is terminated by rapid filtration through pre-soaked Whatman GF/B filters using a Brandell Cell Harvester. The filters were washed (3×3 ml) with ice-cold 50 mM Tris HCl (pH 7.4 at 4°) and bound radioactivity is determined by counting (1 min) in a gamma counter.

In assay [2] the target is T2, CCKB receptor (Mus musculus, UniProt P56481).
T2 construct: CCKB receptor in mouse cortical membranes; from tissue; host or cells: mouse cerebral cortex membranes (male mice, Charles River)
T2 sequence (P56481 1-453): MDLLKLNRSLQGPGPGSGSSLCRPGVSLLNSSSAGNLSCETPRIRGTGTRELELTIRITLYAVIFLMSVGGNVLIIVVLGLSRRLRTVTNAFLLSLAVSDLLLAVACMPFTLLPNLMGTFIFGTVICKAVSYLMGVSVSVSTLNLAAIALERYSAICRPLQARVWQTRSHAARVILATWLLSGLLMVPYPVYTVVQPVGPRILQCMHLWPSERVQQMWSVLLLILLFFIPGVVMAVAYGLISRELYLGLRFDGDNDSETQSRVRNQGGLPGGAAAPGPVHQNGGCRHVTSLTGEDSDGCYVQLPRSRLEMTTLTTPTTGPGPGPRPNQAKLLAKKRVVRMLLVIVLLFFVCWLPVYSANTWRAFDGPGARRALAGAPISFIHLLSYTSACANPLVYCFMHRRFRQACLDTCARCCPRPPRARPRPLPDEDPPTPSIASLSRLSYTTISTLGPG
The assay is described as follows: CCKB radioligand binding assay in mouse cortical membranes, [125I] CCK-8S (selectivity testing). Details: species or system male mice. The following applies: [125I] CCK-8S 200 pM, 150 min at 21°, pH 7.2, non-specific binding L-365,260, read-out: pKi CCKB (converted). On the procedure: The compounds were assayed for selectivity with respect to the CCKB receptor in mouse cortical membranes by means of a radioligand binding assay. The procedure was as follows:
The whole brains from male mice (CDI 22-25 g; Charles River) were removed and placed in ice-cold buffer (pH 7.2 at 21°±3° C.) of the following composition (mM); 10 HEPES, 130 NaCl, 4.7 KCl, 5 MgCl2, 1 EDTA and containing 0.25 g. 1^-1 bacitracin.
The cortex was dissected, weighed and homogenised in 40 ml ice-cold buffer using a Teflon-in-glass homogeniser. The homogenate was centrifuged at 39,800 g for 20 min at 4° C., the supernatant discarded and the pellet resuspended by homogenisation in fresh buffer. The homogenate was recentrifuged (39,800 g; 20 min at 4° C.) and the final pellet was resuspended in HEPES buffer to give a tissue concentration of 2 mg ml^-1 (original wet weight).
The membranes (400 μl) were incubated for 150 min at 21°±3° C. in a final volume of 0.5 ml with HEPES buffer containing [^125 I] CCK-8S (0.05 ml; 200 pM NEN 2200Ci.mmol^-1) and competing compound. Total and non-specific binding of [^125 I] CCK-8S were defined using 0.05 ml of buffer and 0.05 ml of 10 mM L-365,260, respectively. The assay was terminated by rapid filtration through pre-soaked Whatman GF/B filters using a Brandell Cell harvester. The filters were washed (3×3 ml) with ice-cold 50 mM Tris-HCl (pH 7.4 at 4° C.) and bound radioactivity determined by counting (1 min.) in a gamma counter.

The target of assay [3] is T3, CCK (gallbladder) receptor (Cavia porcellus, UniProt Q63931).
T3 construct: Isolated, strip preparations were prepared from gall-bladders removed from male Dunkin-Hartley guinea-pigs; from tissue; host or cells: guinea-pig gall-bladder strips
T3 sequence (Q63931 1-430): T1 sequence (Q63931 1-430)
As to the kind of experiment: CCK-receptor bioassay, isolated guinea-pig gall-bladder strip preparations, CCK-8 as agonist. Format: cell-based, male Dunkin-Hartley guinea-pigs. To be noted: negative log10 of equilibrium dissociation constant; guinea-pig gall-bladder strips; CCK-8 agonist; test compound incubated for 60 minutes; 37° C; read-out: pKB versus CCK (gallbladder) (converted). On the procedure: The compounds of the examples were assayed using a CCK-receptor bioassay as follows:
Isolated, strip preparations were prepared from gall-bladders removed from male Dunkin-Hartley guinea-pigs (250-500 g body weight) according to the method of La Morte, W. W., et al., J.P.E.T., 217, (3), 638-644 (1981).
The complete gall-bladder is removed and opened along the longitudinal axis. Strips measuring 3 mm in the longitudinal axis and 1 mm in the transverse axis are cut and then tied with cotton to stainless steel wires. The preparation is connected to a GRASS FTO3 isometric transducer under an initial loading tension of 1 g and is immersed in 20 mls of Krebs solution maintained at 37° C. and gassed with 95% O2 /5% CO2. The Krebs solution is as detailed above in connection with the fundus assay, except that the Ca^2+ concentration is decreased to 0.5 mM. After 30 mins the preparation is washed. Drug addition begins after an initial 90 min stabilisation period. Responses are measured as changes in tension from that immediately prior to any drug addition. Single cumulative agonist concentration-effect curves, using CCK-8 as agonist, are obtained on each preparation in the absence and presence of test compound which has been incubated for 60 minutes. The antagonist activity of the test compound is estimated and expressed as the negative logarithm (base 10) of the equilibrium dissociation constants (pKB) using the modifications of standard competitive analysis described by Black et al., Br. J. Pharmacol.,86,571-579, (1985) and Shankley et al., Br. J. Pharmacol.,94,264-274 (1988).

Regarding `O=C(O)C[C@H](NS(=O)(=O)c1ccc2ccccc2c1)C(=O)N1CCC2(CCCC2)CC1` [Example 13, 2-Naphthalenesulphonyl-L-aspartyl 3-azaspiro[5.4]decylamide], the Ki in assay [1] is 6310 nM; in assay [2] it was 10000 nM. In addition, the Kb in assay [3] is 6310 nM.
In the case of `O=C(O)C[C@H](NS(=O)(=O)c1ccc2ccccc2c1)C(=O)NC1CCCCCCCCCCC1` [Example 16, 2-Naphthalenesulphonyl-L-aspartyl cyclododecylamide], the results for the Ki in assay [1] and in assay [2] were 39.8 nM and 10000 nM, respectively. The Kb in assay [3] was 79.4 nM.
Regarding `CCCCCN(CCCCC)C(=O)[C@@H](CC(=O)O)NS(=O)(=O)c1ccc2ccccc2c1` [Example 18, 2-Naphthalenesulphonyl-D-aspartyl dipentylamide], the Ki is 631 nM in assay [1] and 3160 nM in assay [2]. The Kb in assay [3] was 158 nM.
For `CCCCCN(CCCCC)C(=O)[C@H](CCC(=O)O)NS(=O)(=O)c1ccc2ccccc2c1` [Example 19, 2-Naphthalenesulphonyl-L-glutamyl dipentylamide] the same measures were 1580 nM, 3160 nM and 631 nM.
The matching figures for `CCCCCN(CCCCC)C(=O)[C@H](CC(=O)O)NS(=O)(=O)c1cccc2ccccc12` [Example 21, 1-Naphthalenesulphonyl-L-aspartyl dipentylamide]: 2000 nM, 10000 nM and 1260 nM.
